{"source": "patent US20030139296A1", "about": "(priority 2000, published 2003)", "key": {"defense genes in plants": {"system": "defense genes in plants", "conditions": "compared among vitamin B1, vitamin B6 and vitamin C"}, "[1]": {"system": "PR1, PBZ1 and POX22.3 defense genes"}, "[2]": {"system": "PAL, APX and HMGR defense genes", "conditions": "tomato stem soaked in aqueous solution at 50 u uM; FIG. 4"}, "[3]": {"system": "PR1, PBZ1 and POX22.3 defense genes", "conditions": "in vivo"}, "[4]": {"system": "Xanthomonas oryzae pv. oryzae KX021", "conditions": "bacterial leaf blight in rice; for Degree of the disease severity: distance from inoculated points to symptoms; for Control value(%): versus Tween 80-treated rice, HCl"}, "Magnaporthe grisea KJ201 [5]": {"system": "Magnaporthe grisea KJ201", "conditions": "rice blast; for Degree of the disease severity: 28° C., 1 day, inoculated at fourth-leaf stage, scale 0~10; for Control value(%): versus distilled water-treated rice, HCl"}, "Magnaporthe grisea KJ201 [6]": {"system": "Magnaporthe grisea KJ201", "assay_type": "in vivo", "conditions": "rice blast; for Degree of the disease severity: 1 week after inoculation, scale 0~10; for Control value(%): versus Tween 80-treated rice"}, "[7]": {"system": "PR1, PBZ1 and POX22.3 defense genes", "conditions": "FIG. 1"}, "[8]": {"conditions": "20 mM + Tween 80 (250 ppm) spray"}, "[9]": {"conditions": "50 mM + Tween 80 (250 ppm) spray"}}, "note": "Where a name gives a salt, the structure may show the parent alone. Read-outs that look alike come from different tables or passages of the source."}
{"smiles": "Cc1ncc(C[n+]2csc(CCO)c2C)c(N)n1", "note": "[vitamin B1]", "values": [{"measurement": "Effectiveness for inducing the expression of defense genes in plants", "setting": "defense genes in plants", "result": "the most effective"}]}
{"smiles": "Cc1ncc(C[n+]2csc(CCO)c2C)c(N)n1", "note": "[Vitamin B1 HCl, thiamine HCl]", "values": [{"measurement": "Time after inoculation at which expression of all three defense genes was detected", "setting": "[1]; in vivo", "result": 24, "unit": "h"}, {"measurement": "Time after treatment at which expression of defense genes was detected", "setting": "[1]; in vivo", "result": 24, "unit": "h"}, {"measurement": "Expression of defense genes compared to groups A and B", "setting": "[1]; rice treated with 50 mM and then inoculated with leaf blight bacteria (group C), FIG. 3", "result": "considerably increased"}, {"measurement": "Time by which all the defense genes were expressed", "setting": "[2]", "result": "≤ 1", "unit": "h"}, {"measurement": "Time after treatment at which all defense genes tested were induced to express", "setting": "[3]", "result": 4, "unit": "h"}, {"measurement": "Degree of the disease severity", "setting": "[4]; 5 mM + Tween 80 (250 ppm) spray, 1 week after inoculation", "result": "8.7 ± 0.6"}, {"measurement": "Control value(%)", "setting": "[4]; 5 mM + Tween 80 (250 ppm)", "result": "10.3 ± 6.2", "unit": "%"}, {"measurement": "Control value(%)", "setting": "[4]; 5 mM + Tween 80 (250 ppm), listed as vitamin B1 hydrochloride", "result": "about 30%"}, {"measurement": "Degree of the disease severity", "setting": "[4]; 10 mM + Tween 80 (250 ppm) spray, 1 week", "result": "4.2 ± 1.4"}, {"measurement": "Control value(%)", "setting": "[4]; 10 mM + Tween 80 (250 ppm)", "result": "56.3 ± 14.4", "unit": "%"}, {"measurement": "Control value(%)", "setting": "[4]; 10 mM + Tween 80 (250 ppm), listed as vitamin B1 hydrochloride", "result": "not less than 56%"}, {"measurement": "Control value(%)", "setting": "[4]; 20 mM + Tween 80 (250 ppm)", "result": "68.3 ± 25.9", "unit": "%"}, {"measurement": "Control value(%)", "setting": "[4]; 20 mM + Tween 80 (250 ppm), listed as vitamin B1 hydrochloride", "result": "≥ 68", "unit": "%"}, {"measurement": "Degree of the disease severity", "setting": "[4]; 50 mM + Tween 80 (250 ppm) spray, 1 week", "result": "0.2 ± 0.3"}, {"measurement": "Control value(%)", "setting": "[4]; 50 mM + Tween 80 (250 ppm)", "result": "97.6 ± 3.1", "unit": "%"}, {"measurement": "Control value(%)", "setting": "[4]; 50 mM + Tween 80 (250 ppm), listed as vitamin B1 hydrochloride", "result": "≥ 97", "unit": "%"}, {"measurement": "Degree of the disease severity", "setting": "[4]; 100 mM + Tween 80 (250 ppm) spray, 1 week", "result": "0.3 ± 0.1"}, {"measurement": "Control value(%)", "setting": "[4]; 100 mM + Tween 80 (250 ppm)", "result": "97.2 ± 1.0", "unit": "%"}, {"measurement": "Control value(%)", "setting": "[4]; 100 mM + Tween 80 (250 ppm), listed as vitamin B1 hydrochloride", "result": "≥ 97", "unit": "%"}, {"measurement": "Degree of the disease severity", "setting": "Magnaporthe grisea KJ201 [5]; seeds soaked at 20 mM", "result": "5.4 ± 3.2"}, {"measurement": "Control value(%)", "setting": "Magnaporthe grisea KJ201 [5]; seeds soaked at 20 mM", "result": "44.4 ± 32.8", "unit": "%"}, {"measurement": "Control value(%)", "setting": "Magnaporthe grisea KJ201 [5]; seeds soaked at 20 mM, listed as vitamin B1 hydrochloride", "result": 44, "unit": "%"}, {"measurement": "Degree of the disease severity", "setting": "Magnaporthe grisea KJ201 [5]; seeds soaked at 50 mM", "result": "2.3 ± 1.9"}, {"measurement": "Control value(%)", "setting": "Magnaporthe grisea KJ201 [5]; seeds soaked at 50 mM", "result": "76.8 ± 19.5", "unit": "%"}, {"measurement": "Control value(%)", "setting": "Magnaporthe grisea KJ201 [5]; seeds soaked at 50 mM, listed as vitamin B1 hydrochloride", "result": 77, "unit": "%"}, {"measurement": "Degree of the disease severity", "setting": "Magnaporthe grisea KJ201 [6]; 5 mM + Tween 80 (250 ppm) spray, inoculated 4 hours after treatment", "result": "6.5 ± 0.6"}, {"measurement": "Control value(%)", "setting": "Magnaporthe grisea KJ201 [6]; 5 mM + Tween 80 (250 ppm) spray, HCl", "result": "21.2 ± 7.2", "unit": "%"}, {"measurement": "Control value(%)", "setting": "Magnaporthe grisea KJ201 [6]; 5 mM + Tween 80 (250 ppm) spray, listed as vitamin B1 hydrochloride, HCl", "result": "not more than 30%"}, {"measurement": "Degree of the disease severity", "setting": "Magnaporthe grisea KJ201 [6]; 10 mM + Tween 80 (250 ppm) spray", "result": "5.8 ± 1.5"}, {"measurement": "Control value(%)", "setting": "Magnaporthe grisea KJ201 [6]; 10 mM + Tween 80 (250 ppm) spray, HCl", "result": "30.3 ± 18.2", "unit": "%"}, {"measurement": "Control value(%)", "setting": "Magnaporthe grisea KJ201 [6]; 10 mM + Tween 80 (250 ppm) spray, listed as vitamin B1 hydrochloride, HCl", "result": "not more than 30%"}, {"measurement": "Degree of the disease severity", "setting": "Magnaporthe grisea KJ201 [6]; [8]", "result": "2.3 ± 1.4"}, {"measurement": "Control value(%)", "setting": "Magnaporthe grisea KJ201 [6]; [8]", "result": "72.7 ± 17.0", "unit": "%"}, {"measurement": "Degree of the disease severity", "setting": "Magnaporthe grisea KJ201 [6]; [9]", "result": "2.8 ± 1.5"}, {"measurement": "Control value(%)", "setting": "Magnaporthe grisea KJ201 [6]; [9]", "result": "66.7 ± 18.2", "unit": "%"}, {"measurement": "Degree of the disease severity", "setting": "Magnaporthe grisea KJ201 [6]; 100 mM + Tween 80 (250 ppm) spray", "result": "1.1 ± 0.8"}, {"measurement": "Control value(%)", "setting": "Magnaporthe grisea KJ201 [6]; 100 mM + Tween 80 (250 ppm) spray, HCl", "result": "87.3 ± 9.7", "unit": "%"}, {"measurement": "Control value(%)", "setting": "Magnaporthe grisea KJ201 [6]; 100 mM + Tween 80 (250 ppm) spray, listed as vitamin B1 hydrochloride, HCl", "result": "about 87%"}, {"measurement": "Expression of defense genes compared to groups A and B", "setting": "[7]; rice treated with 50 mM and then inoculated with rice blast fungus (group C)", "result": "considerably increased"}, {"measurement": "Time at which expression of defense genes was detected", "setting": "[7]; rice treated with 50 mM only (group B)", "result": 24, "unit": "h"}, {"measurement": "Time after inoculation at which expression of all three defense genes was detected", "setting": "[7]; rice treated with 50 mM, inoculated with rice blast fungus 24 hours later (group C)", "result": 24, "unit": "h"}]}
